In PMC8214221, “Sequence determinants in the cathelicidin LL-37 that promote inflammation via presentation of RNA to scavenger receptors” (The Journal of Biological Chemistry, 2021):
Residues, ends and D or L forms follow the SMILES beside them.

Each compound was assayed on normal human epidermal keratinocytes (NHEKs) (assay: LDH release cytotoxicity assay in keratinocytes). Conditions: minimal concentration giving 50% LDH release by NHEKs.
Format: cell-based
From the text: Since LL-34 was the minimal truncation mutant of LL-37 that retained both antimicrobial and immune modulatory activity, we prepared a series of synthetic peptides with sequential substitutions of alanine at each amino acid position of the LL-34 parent peptide (Table 1). We compared the minimum inhibitory concentration (MIC) for the LL-34 parent peptide and the alanine mutants (LL-34 peptides—L1A and R34A) against methicillin-resistant Staphylococcus aureus strain USA300 (Fig. 1A). LL-34 peptides were incubated at concentrations of 0 to 100 μM with bacteria. The minimal concentration at which no growth was observed was noted after 18 h of incubation. […] Because of these changes in the MIC against S. aureus between the mutants, we investigated the effective toxicity profile of the peptides in normal human epidermal keratinocytes (NHEKs) by lactate dehydrogenase (LDH) release assay (Table 1). […] Most other peptides were cytotoxic at a minimal concentration of 10 μM, whereas LL-34—K15A was toxic at a concentration of 2.5 μM.
LDH cytotoxicity assay was performed according to manufacturer's instructions (Thermo Fisher Scientific). Culture supernatants from keratinocytes were used fresh for LDH assay after experimental treatments.

Structure (SMILES)	Minimal cytotoxic concentration in NHEK (LD50)
CC[C@H](C)[C@H](NC(=O)[C@H](CCCCN)NC(=O)[C@H](CCC(=O)O)NC(=O)[C@H](CCCCN)NC(=O)[C@H](CO)NC(=O)[C@H](CCCCN)NC(=O)[C@H](CCCNC(=N)N)NC(=O)[C@H](Cc1ccccc1)NC(=O)[C@H](Cc1ccccc1)NC(=O)[C@H](CC(=O)O)NC(=O)CNC(=O)[C@H](CC(C)C)NC(=O)[C@@H](N)CC(C)C)C(=O)NCC(=O)N[C@@H](CCCCN)C(=O)N[C@@H](CCC(=O)O)C(=O)N[C@@H](Cc1ccccc1)C(=O)N[C@@H](C)C(=O)N[C@@H](CCCNC(=N)N)C(=O)N[C@H](C(=O)N[C@H](C(=O)N[C@@H](CCC(N)=O)C(=O)N[C@@H](CCCNC(=N)N)C(=O)N[C@H](C(=O)N[C@@H](CCCCN)C(=O)N[C@@H](CC(=O)O)C(=O)N[C@@H](Cc1ccccc1)C(=O)N[C@@H](CC(C)C)C(=O)N[C@@H](CCCNC(=N)N)C(=O)N[C@@H](CC(N)=O)C(=O)N[C@@H](CC(C)C)C(=O)N[C@H](C(=O)N1CCC[C@H]1C(=O)N[C@@H](CCCNC(=N)N)C(=O)O)C(C)C)[C@@H](C)CC)C(C)C)[C@@H](C)CC [LL-34—K18A] (H-LLGDFFRKSKEKIGKEFARIVQRIKDFLRNLVPR-OH; N-terminus and C-terminus assumed)	10 µM
CC[C@H](C)[C@H](NC(=O)[C@H](CCCCN)NC(=O)[C@H](CCC(=O)O)NC(=O)[C@H](CCCCN)NC(=O)[C@H](CO)NC(=O)[C@H](CCCCN)NC(=O)[C@H](CCCNC(=N)N)NC(=O)[C@H](Cc1ccccc1)NC(=O)[C@H](Cc1ccccc1)NC(=O)[C@H](CC(=O)O)NC(=O)CNC(=O)[C@H](CC(C)C)NC(=O)[C@@H](N)CC(C)C)C(=O)NCC(=O)N[C@@H](CCCCN)C(=O)N[C@@H](CCC(=O)O)C(=O)N[C@@H](Cc1ccccc1)C(=O)N[C@@H](CCCCN)C(=O)N[C@@H](CCCNC(=N)N)C(=O)N[C@H](C(=O)N[C@H](C(=O)N[C@@H](CCC(N)=O)C(=O)N[C@@H](CCCNC(=N)N)C(=O)N[C@H](C(=O)N[C@@H](CCCCN)C(=O)N[C@@H](C)C(=O)N[C@@H](Cc1ccccc1)C(=O)N[C@@H](CC(C)C)C(=O)N[C@@H](CCCNC(=N)N)C(=O)N[C@@H](CC(N)=O)C(=O)N[C@@H](CC(C)C)C(=O)N[C@H](C(=O)N1CCC[C@H]1C(=O)N[C@@H](CCCNC(=N)N)C(=O)O)C(C)C)[C@@H](C)CC)C(C)C)[C@@H](C)CC [LL-34—D26A] (H-LLGDFFRKSKEKIGKEFKRIVQRIKAFLRNLVPR-OH; N-terminus and C-terminus assumed)	10 µM
CC[C@H](C)[C@H](NC(=O)[C@H](C)NC(=O)[C@H](CCCCN)NC(=O)[C@H](Cc1ccccc1)NC(=O)[C@H](CCC(=O)O)NC(=O)[C@H](CCCCN)NC(=O)CNC(=O)[C@@H](NC(=O)[C@H](CCCCN)NC(=O)[C@H](CCC(=O)O)NC(=O)[C@H](CCCCN)NC(=O)[C@H](CO)NC(=O)[C@H](CCCCN)NC(=O)[C@H](CCCNC(=N)N)NC(=O)[C@H](Cc1ccccc1)NC(=O)[C@H](Cc1ccccc1)NC(=O)[C@H](CC(=O)O)NC(=O)CNC(=O)[C@H](CC(C)C)NC(=O)[C@@H](N)CC(C)C)[C@@H](C)CC)C(=O)N[C@H](C(=O)N[C@@H](CCC(N)=O)C(=O)N[C@@H](CCCNC(=N)N)C(=O)N[C@H](C(=O)N[C@@H](CCCCN)C(=O)N[C@@H](CC(=O)O)C(=O)N[C@@H](Cc1ccccc1)C(=O)N[C@@H](CC(C)C)C(=O)N[C@@H](CCCNC(=N)N)C(=O)N[C@@H](CC(N)=O)C(=O)N[C@@H](CC(C)C)C(=O)N[C@H](C(=O)N1CCC[C@H]1C(=O)N[C@@H](CCCNC(=N)N)C(=O)O)C(C)C)[C@@H](C)CC)C(C)C [LL-34—R19A] (H-LLGDFFRKSKEKIGKEFKAIVQRIKDFLRNLVPR-OH; N-terminus and C-terminus assumed)	10 µM
CC[C@H](C)[C@H](NC(=O)[C@H](CCCCN)NC(=O)[C@H](CCC(=O)O)NC(=O)[C@H](CCCCN)NC(=O)[C@H](CO)NC(=O)[C@H](CCCCN)NC(=O)[C@H](CCCNC(=N)N)NC(=O)[C@H](Cc1ccccc1)NC(=O)[C@H](Cc1ccccc1)NC(=O)[C@H](CC(=O)O)NC(=O)CNC(=O)[C@H](C)NC(=O)[C@@H](N)CC(C)C)C(=O)NCC(=O)N[C@@H](CCCCN)C(=O)N[C@@H](CCC(=O)O)C(=O)N[C@@H](Cc1ccccc1)C(=O)N[C@@H](CCCCN)C(=O)N[C@@H](CCCNC(=N)N)C(=O)N[C@H](C(=O)N[C@H](C(=O)N[C@@H](CCC(N)=O)C(=O)N[C@@H](CCCNC(=N)N)C(=O)N[C@H](C(=O)N[C@@H](CCCCN)C(=O)N[C@@H](CC(=O)O)C(=O)N[C@@H](Cc1ccccc1)C(=O)N[C@@H](CC(C)C)C(=O)N[C@@H](CCCNC(=N)N)C(=O)N[C@@H](CC(N)=O)C(=O)N[C@@H](CC(C)C)C(=O)N[C@H](C(=O)N1CCC[C@H]1C(=O)N[C@@H](CCCNC(=N)N)C(=O)O)C(C)C)[C@@H](C)CC)C(C)C)[C@@H](C)CC [LL-34—L2A] (H-LAGDFFRKSKEKIGKEFKRIVQRIKDFLRNLVPR-OH; N-terminus and C-terminus assumed)	5 µM
CC[C@H](C)[C@H](NC(=O)[C@H](CCCCN)NC(=O)[C@H](CCC(=O)O)NC(=O)[C@H](CCCCN)NC(=O)[C@H](CO)NC(=O)[C@H](CCCCN)NC(=O)[C@H](CCCNC(=N)N)NC(=O)[C@H](Cc1ccccc1)NC(=O)[C@H](Cc1ccccc1)NC(=O)[C@H](CC(=O)O)NC(=O)CNC(=O)[C@H](CC(C)C)NC(=O)[C@@H](N)CC(C)C)C(=O)NCC(=O)N[C@@H](CCCCN)C(=O)N[C@@H](CCC(=O)O)C(=O)N[C@@H](Cc1ccccc1)C(=O)N[C@@H](CCCCN)C(=O)N[C@@H](CCCNC(=N)N)C(=O)N[C@H](C(=O)N[C@H](C(=O)N[C@@H](C)C(=O)N[C@@H](CCCNC(=N)N)C(=O)N[C@H](C(=O)N[C@@H](CCCCN)C(=O)N[C@@H](CC(=O)O)C(=O)N[C@@H](Cc1ccccc1)C(=O)N[C@@H](CC(C)C)C(=O)N[C@@H](CCCNC(=N)N)C(=O)N[C@@H](CC(N)=O)C(=O)N[C@@H](CC(C)C)C(=O)N[C@H](C(=O)N1CCC[C@H]1C(=O)N[C@@H](CCCNC(=N)N)C(=O)O)C(C)C)[C@@H](C)CC)C(C)C)[C@@H](C)CC [LL-34—Q22A] (H-LLGDFFRKSKEKIGKEFKRIVARIKDFLRNLVPR-OH; N-terminus and C-terminus assumed)	5 µM
CC[C@H](C)[C@H](NC(=O)[C@H](CCCCN)NC(=O)[C@H](CCC(=O)O)NC(=O)[C@H](CCCCN)NC(=O)[C@H](CO)NC(=O)[C@H](CCCCN)NC(=O)[C@H](CCCNC(=N)N)NC(=O)[C@H](Cc1ccccc1)NC(=O)[C@H](Cc1ccccc1)NC(=O)[C@H](CC(=O)O)NC(=O)CNC(=O)[C@H](CC(C)C)NC(=O)[C@@H](N)CC(C)C)C(=O)NCC(=O)N[C@@H](CCCCN)C(=O)N[C@@H](CCC(=O)O)C(=O)N[C@@H](Cc1ccccc1)C(=O)N[C@@H](CCCCN)C(=O)N[C@@H](CCCNC(=N)N)C(=O)N[C@H](C(=O)N[C@H](C(=O)N[C@@H](CCC(N)=O)C(=O)N[C@@H](CCCNC(=N)N)C(=O)N[C@H](C(=O)N[C@@H](CCCCN)C(=O)N[C@@H](CC(=O)O)C(=O)N[C@@H](Cc1ccccc1)C(=O)N[C@@H](CC(C)C)C(=O)N[C@@H](C)C(=O)N[C@@H](CC(N)=O)C(=O)N[C@@H](CC(C)C)C(=O)N[C@H](C(=O)N1CCC[C@H]1C(=O)N[C@@H](CCCNC(=N)N)C(=O)O)C(C)C)[C@@H](C)CC)C(C)C)[C@@H](C)CC [LL-34—R29A] (H-LLGDFFRKSKEKIGKEFKRIVQRIKDFLANLVPR-OH; N-terminus and C-terminus assumed)	5 µM
CC[C@H](C)[C@H](NC(=O)[C@H](CCCCN)NC(=O)[C@H](CCC(=O)O)NC(=O)[C@H](CCCCN)NC(=O)[C@H](CO)NC(=O)[C@H](CCCCN)NC(=O)[C@H](CCCNC(=N)N)NC(=O)[C@H](Cc1ccccc1)NC(=O)[C@H](Cc1ccccc1)NC(=O)[C@H](CC(=O)O)NC(=O)CNC(=O)[C@H](CC(C)C)NC(=O)[C@@H](N)CC(C)C)C(=O)NCC(=O)N[C@@H](CCCCN)C(=O)N[C@@H](CCC(=O)O)C(=O)N[C@@H](Cc1ccccc1)C(=O)N[C@@H](CCCCN)C(=O)N[C@@H](CCCNC(=N)N)C(=O)N[C@H](C(=O)N[C@@H](C)C(=O)N[C@@H](CCC(N)=O)C(=O)N[C@@H](CCCNC(=N)N)C(=O)N[C@H](C(=O)N[C@@H](CCCCN)C(=O)N[C@@H](CC(=O)O)C(=O)N[C@@H](Cc1ccccc1)C(=O)N[C@@H](CC(C)C)C(=O)N[C@@H](CCCNC(=N)N)C(=O)N[C@@H](CC(N)=O)C(=O)N[C@@H](CC(C)C)C(=O)N[C@H](C(=O)N1CCC[C@H]1C(=O)N[C@@H](CCCNC(=N)N)C(=O)O)C(C)C)[C@@H](C)CC)[C@@H](C)CC [LL-34—V21A] (H-LLGDFFRKSKEKIGKEFKRIAQRIKDFLRNLVPR-OH; N-terminus and C-terminus assumed)	5 µM
CC[C@H](C)[C@H](NC(=O)[C@H](CCCCN)NC(=O)[C@H](CCC(=O)O)NC(=O)[C@H](CCCCN)NC(=O)[C@H](C)NC(=O)[C@H](CCCCN)NC(=O)[C@H](CCCNC(=N)N)NC(=O)[C@H](Cc1ccccc1)NC(=O)[C@H](Cc1ccccc1)NC(=O)[C@H](CC(=O)O)NC(=O)CNC(=O)[C@H](CC(C)C)NC(=O)[C@@H](N)CC(C)C)C(=O)NCC(=O)N[C@@H](CCCCN)C(=O)N[C@@H](CCC(=O)O)C(=O)N[C@@H](Cc1ccccc1)C(=O)N[C@@H](CCCCN)C(=O)N[C@@H](CCCNC(=N)N)C(=O)N[C@H](C(=O)N[C@H](C(=O)N[C@@H](CCC(N)=O)C(=O)N[C@@H](CCCNC(=N)N)C(=O)N[C@H](C(=O)N[C@@H](CCCCN)C(=O)N[C@@H](CC(=O)O)C(=O)N[C@@H](Cc1ccccc1)C(=O)N[C@@H](CC(C)C)C(=O)N[C@@H](CCCNC(=N)N)C(=O)N[C@@H](CC(N)=O)C(=O)N[C@@H](CC(C)C)C(=O)N[C@H](C(=O)N1CCC[C@H]1C(=O)N[C@@H](CCCNC(=N)N)C(=O)O)C(C)C)[C@@H](C)CC)C(C)C)[C@@H](C)CC [LL-34—S9A] (H-LLGDFFRKAKEKIGKEFKRIVQRIKDFLRNLVPR-OH; N-terminus and C-terminus assumed)	5 µM
